In patent publication US8563599B2, “Methods for synthesizing glycinols, glyceollins I and II, compositions of selected intermediates, and therapeutic uses thereof” (The United States of America, represented by the Secretary …, priority 2008, dated 2013):
Like-named read-outs stand apart in the source and are kept apart here.

Assays:
ABTS antioxidant assay = settings: for Trolox Equivalents (μmol/μmol): IC50 compared to IC50 of trolox; for IC50: concentration causing 50% reduction in ABTS absorbance, 2 min, room temperature
Protocol: This example illustrates how the biological data pertaining to antioxidant properties of the compounds was obtained.
The antioxidant activity of each test agent was assayed by a colorimetric assay described in the literature that utilizes 2,2′-azinobis-3-ethylbenzothiazoline-6-sulfonic acid (ABTS). ABTS has an intense blue-green color in its free radical form, but is colorless without the free radical. Free radical ABTS was generated by reacting 7 mM ABTS with 2.45 mM potassium persulfate in water for 24-48 hr at room temperature in the dark. Test agents were diluted in 50/50 phosphate buffered saline (PBS)/ethanol to a series of five concentrations, then added to a 96 well half-area plate using 50 μl per well with four wells for each agent concentration. Four control wells containing 50/50 PBS/ethanol without test agents were setup for comparison for each test agent. Trolox, a water-soluble form of vitamin E commonly employed as an antioxidant standard, was also tested in each set of experiments. The free radical ABTS solution was diluted with 50/50 PBS/ethanol to give an absorbance of 1.4 absorbance units at 734 nm, and was then added 50 μl per well to two of the four wells for each condition. The other two wells for each condition received 50 μl of 50/50 PBS/ethanol without ABTS to provide background correction absorbance readings. All dilution and plate loading operations were performed on a Packard Multiprobe II HTS automated liquid handling system. […] Readings for wells with ABTS were background corrected using the corresponding wells containing matching test agent levels without ABTS. The background corrected absorbance of each test agent concentration was then compared to the control wells without agent to determine the percent decrease in color intensity, corresponding to the percent of ABTS free radical reduction. A fit of percent absorbance decrease versus test agent concentration was then used to estimate the concentration causing a 50% reduction in absorbance, called the IC50. The test agent IC50 values were then compared to the IC50 of trolox to calculate the trolox equivalents (TE, moles of trolox needed to give the same level of antioxidant activity as one mole of test agent) for each agent. Smaller IC50 values or larger TE values indicate higher levels of antioxidant activity.

MCF7 cells = test: Growth inhibition assay (NCI method, sulforhodamine B), MCF7; assay type: cell-based, human; settings: 10% serum; for GI50: human breast cancer cells, 48 hr, read-out: GI50 (μM) MCF7
MCF12A cells = test: Growth inhibition assay (NCI method, sulforhodamine B), MCF12A; assay type: cell-based, human; settings: non-cancerous 'normal' human breast epithelial cells, 48 hr, read-out: GI50 (μM) MCF12A
NCI/ADR-RES cells = test: Growth inhibition assay (NCI method, sulforhodamine B), NCI/ADR-RES; assay type: cell-based, human; settings: multidrug resistant cell line, 48 hr, read-out: GI50 (μM) NCI/ADR-RES
[1] = test system: estrogen receptor (ERE-luciferase) in MCF7 ER-positive cells; test: ERE-Luciferase assay, estrogenic and antiestrogenic activity; assay type: cell-based, human
Protocol: Cell Culture Studies (MCF7 ER-Positive Cells)
Human cancer cell lines derived from breast (MCF7, ER-positive cells) were cultured in 75 ml culture flasks in DMEM (Invitrogen, Co.) supplemented with 10% FBS (Life Technologies, Inc., Gaithersburg, Md.), basic minimum MEM essential (50×, Invitrogen Co.) and MEM non-essential (100×, Invitrogen, Co.) amino acids, sodium pyruvate (100× Invitrogen Co.), antimicotic-antibiotic (10,000 U/mL penicillin G sodium; 10,000 μg/mL streptomycin sulphate; 25 μg/mL amphotericin B as Fungizone®), and human recombinant insulin (4 mg/mL. Invitrogen Co.). The culture flasks were maintained in a tissue culture incubator in a humidified atmosphere of 5% CO2 and 95% air at 37° C. For estrogen studies, cells were washed with PBS 3 times and grown in phenol red-free DMEM supplemented with 5% dextran-coated charcoal-treated FBS (5% CS-FBS) for 72 h before plating for each particular experiment.
Results were then assessed by using an ERE-luciferase assay. The cells were plated in 24 well plates at 5×10^5 cells/well in the same media and allowed to attach overnight. After 18 hours, cells were transfected for 5 h in serum supplemented-free DMEM with […] pGL2-ERE2X-TK-luciferase plasmid, using 6 μl of effectine (Qiagen)/μg of DNA. After 5 h the transfection medium was removed and replaced with phenol red-free DMEM supplemented with 5% CS-FBS containing vehicle, 17β-estradiol, GLY I, or 17β-estradiol plus GLY I, and incubated at 37° C. After 18 h the medium was removed, and 100 μl of lysis buffer was added per well and then incubated for 15 min at room temperature. Cell debris was pelleted by centrifugation at 15000×g for 5 min. cell extracts were normalized for protein concentration using reagent according to the protocol supplied by the manufacturer (Bio-Rad Laboratories, Inc., Hercules, Calif.). Luciferase activity for the cell extracts was determined using Luciferase substrate (Promega Corp.) in an Autoluminat Plus luminometer.

[2] = target: T1, hrER-α (alpha estrogen receptor) (Homo sapiens, UniProt P03372); test: ER-α competition binding assay (fluorescence anisotropy, ES2 displacement); settings: ERα/ES2 complex, 2 h room temperature, FIG. 9; read-out: IC50 for 50% inhibition of a standard's binding with the alpha estrogen receptor (ER-α)
T1 sequence (P03372 1-595): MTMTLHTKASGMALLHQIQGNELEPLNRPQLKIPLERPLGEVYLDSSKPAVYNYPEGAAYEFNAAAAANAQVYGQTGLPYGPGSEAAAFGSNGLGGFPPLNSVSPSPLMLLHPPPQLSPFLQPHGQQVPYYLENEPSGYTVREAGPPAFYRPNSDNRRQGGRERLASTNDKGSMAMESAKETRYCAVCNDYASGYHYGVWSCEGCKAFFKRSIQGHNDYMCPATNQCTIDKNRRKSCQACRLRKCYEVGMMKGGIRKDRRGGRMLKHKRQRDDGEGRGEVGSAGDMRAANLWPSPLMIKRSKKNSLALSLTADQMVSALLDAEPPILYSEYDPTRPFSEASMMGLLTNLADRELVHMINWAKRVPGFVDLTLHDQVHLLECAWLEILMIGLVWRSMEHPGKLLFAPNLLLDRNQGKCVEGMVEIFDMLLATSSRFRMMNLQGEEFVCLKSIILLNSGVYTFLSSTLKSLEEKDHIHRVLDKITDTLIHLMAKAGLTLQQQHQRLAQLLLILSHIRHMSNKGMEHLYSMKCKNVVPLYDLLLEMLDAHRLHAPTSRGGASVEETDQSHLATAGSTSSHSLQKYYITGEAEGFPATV
Protocol: This example illustrates how the biological data pertaining to interaction of the compounds with the alpha-estrogen receptors was obtained.
A 200 μM working stock solution of GLY I was prepared from an original 10 mM DMSO stock solution. The working stock solution was serially diluted in triplicate in screening buffer to the desired concentrations. hrER-α and ES2 were added to a final concentration of 2 nM and 3 nM, respectively. Negative (ER+ES2, equivalent to 0% inhibition) and positive (free ES2, equivalent to 100% inhibition) controls in the absence of competitor were measured in duplicate. After 2 h at room temperature, the anisotropy values in each tube were measured using the Beacon 2000 system CO. The anisotropy values were converted to percent inhibition using the following formula: I%=(A0−A)/(A0−A100)×100, where I% is the percent inhibition, A0 is 0% inhibition, A100 is 100% inhibition, and A represents the observed value. Polarization values were converted to percent inhibition to make the data more intuitive to the reader and to normalize the day-to-day differences in the starting 0% inhibition polarization values. The percent inhibition versus competitor concentration curves were analyzed by nonlinear least-squares curve fitting and yielded an IC50 value (the concentration of competitor needed to displace half of the bound ligand). To compare binding affinities of the test compounds to those reported in the literature, IC50 values were converted to relative binding affinities (RBA) using E2 as a standard. The E2 RBA was set equal to 100 […].

[3] = pH stability study by HPLC; assay type: physicochemical
From the text: This instability could derive by formation of a quinone-methide from the now unprotected ‘Southern’ ring's phenolic hydroxyl-group. Thus, mildly acidic reagents that might be used for de-protection were explored. In the end, NEt3.3 HF (see, e.g., L. D. Julian, J. S. Newcom, W. R. Roush, J. Am. Chem. Soc. 2005, 127, 6186-6187, which is hereby incorporated by reference in its entirety), which provides a pH in the range of 4-5 when run on the 0.1 mmole scale in anhydrous acetonitrile, was most successfully utilized for this transformation. Even with this approach, however, it is important to adjust the pH of the post-reaction medium (as readily followed by TLC) to pH 7-8 by addition of triethylamine so as to avoid decomposition during subsequent workup. Final compounds are obtained in the range of ca. 65-70% yields. Assignment of stereochemistry for these final materials can be accomplished with NMR and CD. In addition, at this point it is convenient to take advantage of chiral HPLC wherein authentic materials from natural sources can be used as standards along with the synthesized racemic materials.

Oc1ccc2c(c1)OC[C@@]1(O)c3ccc(O)cc3O[C@@H]21 (racemic) [Glycinol (+/−), (+) Glycinol]
antioxidant activity relative to the standards daidzein and genistein (ABTS antioxidant assay; ABTS assay, summary of Table 1): about equiactive to the standards | Trolox Equivalents (μmol/μmol) (ABTS antioxidant assay): 2.8 ± 0.2 μmol/μmol | IC50 (ABTS antioxidant assay): 3.5 ± 0.3 µM | GI50 (MCF7 cells): > 1000 µM | growth inhibitory activity (MCF7 cells; human breast cell lines): lack of growth inhibitory activity | GI50 (MCF12A cells): > 1000 µM | GI50 (NCI/ADR-RES cells): > 1000 µM | estrogenic activity (ERE-Luciferase) ([1]; concentration not given): significantly stronger estrogenic material

CC1(C)C=Cc2c(ccc3c2OCC2(O)c4ccc(O)cc4OC32)O1 (racemic) [racemic (±)-GLY I, (+) Glyceollin I (Racemic Glyceollin I)]
IC50 [2]: 1.4 µM | anti-estrogenic activity (ERE-Luciferase) ([1]; at 10 μM, E2 at 100 pM): strong anti-estrogenic activity | estrogenic activity (ERE-Luciferase) ([1]; concentration not given): no significant estrogenic activity | stability of ring system (HPLC) ([3]; acidic pH as low as 4): reasonable stability | stability of ring system (HPLC) ([3]; basic pH above 8): not stable

CC1(C)C=Cc2c(ccc3c2OC[C@]2(O)c4ccc(O)cc4O[C@H]32)O1 [7 (+), (+) Glyceollin I (Unnatural Glyceollin I)]
Trolox Equivalents (μmol/μmol) (ABTS antioxidant assay): 1.8 ± 0.1 μmol/μmol | IC50 (ABTS antioxidant assay): 5.2 ± 0.3 µM | GI50 (MCF7 cells; MCF7): 21 µM | GI50 (MCF12A cells; MCF-12A): 31 µM | IC50 [2]: 1.4 µM | GI50 (NCI/ADR-RES cells; Homo sapiens, NCI/ADR-RES): 38 µM | estrogenic activity (ERE-Luciferase) ([1]; at 10-25 μM): modest estrogenic activity | anti-estrogenic effects (ERE-Luciferase) ([1]; concentration not given): only slight anti-estrogenic effects

CC1(C)C=Cc2c(ccc3c2OC[C@@]2(O)c4ccc(O)cc4O[C@@H]32)O1 [7 (−), Glyceollin I (Natural Glyceollin I)]
Trolox Equivalents (μmol/μmol) (ABTS antioxidant assay): 1.8 ± 0.1 μmol/μmol | IC50 (ABTS antioxidant assay): 5.3 ± 0.3 µM | GI50 (MCF7 cells; MCF7): 12 µM | GI50 (MCF12A cells; MCF-12A): 25 µM | IC50 [2]: 1.4 µM | GI50 (NCI/ADR-RES cells; Homo sapiens, NCI/ADR-RES): 27 µM | anti-estrogenic activity (ERE-Luciferase) ([1]; at 10-25 μM): only anti-estrogenic activity

CC1(C)C=Cc2c(ccc3c2OC[C@@]2(O)c4ccc(O)cc4O[C@@H]32)O1 [isolated GLY I, reference compound]
IC50 [2]: 1.1 µM
